Earlier results as cited in patent US6759063B2, “Methods and compositions for reducing sympathomimetic-induced side effects” (priority 1999, dated 2004).

Tests used:
[1] = rodents and humans
[2] = separate studies
[3] = test system: human alpha1-adrenoceptors; conditions: up to the highest concentration that could be tested
[4] = test system: cloned human alpha1A- and alpha1B-adrenoceptors; conditions: phenylephrine-stimulated; cloned receptors
[5] = 150 mg/day; obese outpatients

Question: For `Cn1c(=O)c2c(ncn2C)n(C)c1=O` [caffeine], which “thermogenic and anti-obesity properties” value [1] is on record?
Answer: no effect

Question: Which “weight loss in obese patients” value [2] does the source give for `CCN[C@@H](C)Cc1cccc(C(F)(F)F)c1` [dexfenfluramine] here?
Answer: promote weight loss

Question: With `CC[C@H](CC[C@@H](C)[C@H]1CC[C@H]2[C@@H]3CC=C4C[C@@H](O)CC[C@]4(C)[C@H]3CC[C@]12C)C(C)C` [beta-sitosterol] as the compound, how does the “inhibition of radioligand binding to human alpha1-adrenoceptors” value [3] read?
Answer: without consistent inhibitory effect

Question: And the “inhibition of agonist-induced [3H]inositol phosphate formation” value [4]?
Answer: without consistent inhibitory effect

Question: For `CN[C@@H](C)[C@H](O)c1ccccc1` [ephedrine], which “thermogenic and anti-obesity properties” value [1] is on record?
Answer: potent thermogenic and anti-obesity properties

Question: What about the “adverse side effects versus placebo group” value [5] of the same compound?
Answer: significantly greater adverse side effects
